Some test systems named below: HOP-62 NSCLC; UACC-257 melanoma; CCRF-CEM leukemia; HCT-116 colon; SK-MEL-2 melanoma; SN12C renal; SNB-19 CNS; 786-0 renal; OVCAR-8 ovarian; BT-549 breast; IGROV1 ovarian; KM12 colon; SF-539 CNS; HOP-92 NSCLC.
What all share (test): NCI tumour cell line growth inhibition, 48 h

Molecules are shown by their SMILES. Values joined by “and” are separate entries in the source; they are usually repeats but may differ in a detail not shown here. Equal values may be shown once.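 Where inhibition never reached the appropriate level, the endpoint shown equals the highest concentration tested. Otherwise, values were interpolated linearly from a five-concentration, 48-hour dose response in 96-well plates. GI50 is the concentration that inhibits growth by half. TGI: concentration producing complete growth inhibition.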

With `O=C(C=P(c1ccccc1)(c1ccccc1)c1ccccc1)c1ccc(-c2cccs2)cc1`, the TGI was found to be 20.7 µM with HOP-62 NSCLC; 6.35 µM in the experiment with UACC-257 melanoma; 22.1 µM with CCRF-CEM leukemia; 13.9 µM with HCT-116 colon; 3.11 µM with SK-MEL-2 melanoma; 17.6 µM in the experiment with SN12C renal. For the same compound, the TGI in the experiment on SNB-19 CNS was 11.2 µM; in the experiment on 786-0 renal, 17.6 µM; in the experiment on OVCAR-8 ovarian, 17.8 µM; in the experiment on BT-549 breast, 40.7 µM; in the experiment on IGROV1 ovarian it was 21.2 µM; in the experiment on KM12 colon, 15 µM. The TGI came out at 12.4 µM in the experiment with SF-539 CNS and 11.3 µM in the experiment with HOP-92 NSCLC.
On to `CCOC(=O)c1cnc(N(C)C)nc1SC(=N)N`, for which the TGI with HOP-62 NSCLC, in the experiment with UACC-257 melanoma, with HCT-116 colon, with SK-MEL-2 melanoma, with SN12C renal and in the experiment with SNB-19 CNS was greater than 100 µM throughout. Further, the TGI in the experiment on 786-0 renal, in the experiment on OVCAR-8 ovarian, in the experiment with BT-549 breast, with IGROV1 ovarian, with KM12 colon and in the experiment with SF-539 CNS was greater than 100 µM each time. The TGI in the experiment with HOP-92 NSCLC is greater than 100 µM.
Turning to `CCOc1cc(C2CC(c3ccc(NS(=O)(=O)c4cc([N+](=O)[O-])ccc4C)cc3)=NN2S(=O)(=O)c2cc([N+](=O)[O-])ccc2C)ccc1O` (stereo not given), the TGI is greater than 100 µM in the experiment with HOP-62 NSCLC; greater than 100 µM with UACC-257 melanoma; greater than 100 µM with CCRF-CEM leukemia; greater than 100 µM with HCT-116 colon; 62 µM with SK-MEL-2 melanoma; 81.3 µM with SN12C renal. In addition, the TGI with SNB-19 CNS is greater than 100 µM; with 786-0 renal, 98.7 µM; with OVCAR-8 ovarian, greater than 100 µM; in the experiment with BT-549 breast, greater than 100 µM; in the experiment with IGROV1 ovarian it was greater than 100 µM; in the experiment with KM12 colon, greater than 100 µM. The values for the TGI in the experiment with SF-539 CNS and in the experiment on HOP-92 NSCLC were greater than 100 µM and 60.7 µM, respectively.
As for `CN1C=c2c3c(ccc2=C2C=CC4C=C5OCOC5=CC4=C21)OCO3` (stereo not given), the TGI in the experiment with HOP-62 NSCLC is 2.97 µM and 6.29 µM; in the experiment with UACC-257 melanoma, 3.26 µM and 10.1 µM; with HCT-116 colon, 2.39 µM and 3.19 µM; with SK-MEL-2 melanoma it was 3.53 µM and 5.87 µM; with SN12C renal it was 2.9 µM and 3.87 µM; in the experiment with SNB-19 CNS, 3.07 µM and 25 µM. The TGI with 786-0 renal was 2.65 µM and 3.06 µM; with OVCAR-8 ovarian, 1.64 µM and 4.19 µM; with BT-549 breast it was 3.38 µM and 6.26 µM; with IGROV1 ovarian it was 3.05 µM and 4.01 µM; with KM12 colon it was 2.8 µM and 13.2 µM; in the experiment on SF-539 CNS, 3.18 µM and 4.8 µM. In addition, the TGI in the experiment on HOP-92 NSCLC was 3 µM and 14.1 µM. In addition, the GI50 with CCRF-CEM leukemia is 0.21 µM and 1.03 µM; with SNB-19 CNS it was 1.65 µM and 12.2 µM; in the experiment on OVCAR-8 ovarian, 0.423 µM and 1.52 µM; in the experiment on KM12 colon, 1.27 µM and 4.06 µM; with HOP-92 NSCLC it was 1.62 µM and 5.71 µM.
As to `Cc1ccc2c(c1)SC1=Nc3sc4cc(C)ccc4[n+]3CN12`, the TGI worked out at 54.6 µM in the experiment on HOP-62 NSCLC; 12.8 µM in the experiment with UACC-257 melanoma; 35 µM in the experiment with HCT-116 colon; 17.8 µM in the experiment on SK-MEL-2 melanoma; 56.2 µM with SN12C renal; 16.9 µM with SNB-19 CNS. For the same compound, the TGI in the experiment with 786-0 renal was greater than 100 µM; in the experiment with OVCAR-8 ovarian, 18.8 µM; in the experiment with BT-549 breast, 18.3 µM; with IGROV1 ovarian it was 34 µM; in the experiment on SF-539 CNS it was 25.4 µM; in the experiment on HOP-92 NSCLC, 68 µM.
As for `Cc1ccc(O)c(Cc2nc3ccccc3nc2-c2cccc(Cl)c2)c1`, the TGI is greater than 100 µM in the experiment with HOP-62 NSCLC; greater than 100 µM in the experiment with UACC-257 melanoma; greater than 100 µM in the experiment on HCT-116 colon; greater than 100 µM in the experiment with SK-MEL-2 melanoma; greater than 100 µM with SN12C renal; 63.4 µM in the experiment with SNB-19 CNS. Further, the TGI in the experiment with 786-0 renal, in the experiment on OVCAR-8 ovarian, in the experiment on BT-549 breast, in the experiment on IGROV1 ovarian, with KM12 colon and in the experiment on SF-539 CNS was greater than 100 µM throughout. This compound came in with a TGI with HOP-92 NSCLC of 78.5 µM.
On to `O=C(CSCC(=O)N/N=C/c1ccc2c(c1)OCO2)N/N=C/c1ccc2c(c1)OCO2`, for which the TGI with HOP-62 NSCLC, in the experiment on UACC-257 melanoma, in the experiment on CCRF-CEM leukemia, in the experiment with HCT-116 colon, with SK-MEL-2 melanoma and with SN12C renal was greater than 100 µM each time. Further, the TGI in the experiment on SNB-19 CNS, in the experiment on 786-0 renal, with OVCAR-8 ovarian, in the experiment with BT-549 breast, in the experiment on IGROV1 ovarian and in the experiment on KM12 colon was greater than 100 µM throughout. Also, the TGI in the experiment with SF-539 CNS and in the experiment with HOP-92 NSCLC was greater than 100 µM throughout.
`CCCCc1ccc(N=C(N)N)cc1`: the TGI is greater than 100 µM in the experiment on UACC-257 melanoma; 53.7 µM in the experiment on CCRF-CEM leukemia; greater than 100 µM with HCT-116 colon; greater than 100 µM in the experiment with SK-MEL-2 melanoma; greater than 100 µM in the experiment on SN12C renal; greater than 100 µM in the experiment with SNB-19 CNS. In addition, the TGI is 48.8 µM with 786-0 renal; greater than 100 µM in the experiment with OVCAR-8 ovarian; 90.7 µM in the experiment with BT-549 breast; 71.7 µM in the experiment on IGROV1 ovarian; 36.6 µM with KM12 colon; greater than 100 µM in the experiment with HOP-92 NSCLC.
Regarding `CC(=O)O[C@@H]1C[C@]2(C(=O)c3ccccc3)C(=O)C(=O)S[C@]12c1ccccc1`, the TGI in the experiment with HOP-62 NSCLC, in the experiment with UACC-257 melanoma, with HCT-116 colon, in the experiment on SK-MEL-2 melanoma, in the experiment with SN12C renal and in the experiment on SNB-19 CNS was greater than 100 µM each time. Moreover, the TGI with 786-0 renal is greater than 100 µM; with OVCAR-8 ovarian, greater than 100 µM; in the experiment with BT-549 breast it was greater than 100 µM; in the experiment with IGROV1 ovarian, greater than 100 µM; in the experiment on KM12 colon, greater than 100 µM; in the experiment on SF-539 CNS, 60.4 µM. The TGI in the experiment with HOP-92 NSCLC is greater than 100 µM.
As to `C[n+]1cccc(NC(=O)c2ccc(NC(=O)C34CCC(C(=O)Nc5ccc(C(=O)Nc6ccc[n+](C)c6)cc5)(CC3)CC4)cc2)c1`, the TGI with HOP-62 NSCLC is greater than 100 µM; with UACC-257 melanoma, greater than 100 µM; with CCRF-CEM leukemia, greater than 100 µM; in the experiment with HCT-116 colon, greater than 100 µM; in the experiment with SN12C renal, 75.1 µM; in the experiment with SNB-19 CNS, greater than 100 µM. The TGI was greater than 100 µM in the experiment with 786-0 renal; greater than 100 µM in the experiment with OVCAR-8 ovarian; greater than 100 µM with IGROV1 ovarian; 22.7 µM with KM12 colon; greater than 100 µM in the experiment with SF-539 CNS; greater than 100 µM in the experiment with HOP-92 NSCLC.

The values above are taken from PubChem BioAssay (NCI).
